Results as given in patent US20180258381A1, “BIO-LAMINA BIOREACTORS AND METHODS OF MAKING AND USING THE SAME” (Oregon State University, priority 2015, published 2018).

Columns and labels:
sMMO = molecular target: T1, sMMO (Methylosinus trichosporium, UniProt P27353); assay: sMMO activity reactivity assay, inhibitor trials; type: cell-based, M. trichosporium OB3b
T1 construct: endogenous in cells; host or cells: M. trichosporium OB3b whole cells, grown without copper (chemostat or batch)
T1 sequence (P27353 1-526): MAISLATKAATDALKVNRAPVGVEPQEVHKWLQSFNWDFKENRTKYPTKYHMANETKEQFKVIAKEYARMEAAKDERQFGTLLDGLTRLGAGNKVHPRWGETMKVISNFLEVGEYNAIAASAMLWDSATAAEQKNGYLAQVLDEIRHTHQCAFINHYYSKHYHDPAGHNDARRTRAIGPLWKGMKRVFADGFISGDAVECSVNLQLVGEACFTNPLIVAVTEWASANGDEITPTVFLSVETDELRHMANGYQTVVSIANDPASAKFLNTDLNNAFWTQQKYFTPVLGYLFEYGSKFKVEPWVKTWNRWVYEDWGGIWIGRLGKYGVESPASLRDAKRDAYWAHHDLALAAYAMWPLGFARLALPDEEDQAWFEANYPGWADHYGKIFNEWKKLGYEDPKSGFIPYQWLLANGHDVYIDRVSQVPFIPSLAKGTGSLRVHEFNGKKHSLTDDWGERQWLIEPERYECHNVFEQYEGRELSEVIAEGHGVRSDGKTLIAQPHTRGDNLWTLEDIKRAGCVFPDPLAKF
T1 sequence (P27354 1-394 partner): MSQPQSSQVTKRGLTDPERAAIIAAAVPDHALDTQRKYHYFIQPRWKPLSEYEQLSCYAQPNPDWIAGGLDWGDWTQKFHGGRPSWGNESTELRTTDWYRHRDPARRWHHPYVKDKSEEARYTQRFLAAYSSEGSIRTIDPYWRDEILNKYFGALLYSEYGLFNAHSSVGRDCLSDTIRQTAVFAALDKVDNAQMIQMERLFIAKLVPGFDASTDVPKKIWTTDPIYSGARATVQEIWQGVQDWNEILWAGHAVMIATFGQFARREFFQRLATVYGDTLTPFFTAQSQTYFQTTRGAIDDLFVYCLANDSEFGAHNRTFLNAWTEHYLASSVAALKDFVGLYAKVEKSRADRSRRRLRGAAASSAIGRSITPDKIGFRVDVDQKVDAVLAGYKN
T1 sequence (P27355 1-169 partner): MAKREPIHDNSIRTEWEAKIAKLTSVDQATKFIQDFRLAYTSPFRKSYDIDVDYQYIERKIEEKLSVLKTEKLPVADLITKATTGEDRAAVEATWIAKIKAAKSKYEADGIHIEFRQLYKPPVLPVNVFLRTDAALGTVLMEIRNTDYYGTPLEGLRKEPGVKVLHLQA
Procedure: M. trichosporium OB3b cultures were grown under plus copper (pMMO expressed) or minus copper (sMMO expressed) conditions using chemostat or batch culture conditions. Aliquots of culture (˜100 ml) were harvested by centrifugation, and concentrated 50-fold in fresh media. Pelleting cells in this manner ensured that all residual methane was eliminated, increased ease of measuring protein, and made activity assays as brief as possible. Assays were performed in 30 ml crimp cap reaction vials with 4 ml of media (either +Cu or −Cu) with 10 mM sodium formate. To initiate assays, 100 µl of the 50× cell suspension was added to reaction vials with a plastic syringe. Short descriptions of activity assays follow.
Due to the relative insolubility of methane, large volumes should be added to reaction vials to achieve concentrations in the aqueous phase (Cw) above the concentration of methane where the velocity of methane consumption (V) is equal to 0.5Vmax for minus copper grown M. trichosporium OB3b cultures. These large methane additions make direct measurement of methane consumption in short-term assays unlikely, therefore the accumulation of ethylene oxide (ETO) upon the oxidation of ethylene (ETH) was used as a surrogate measurement. Reaction vials were prepared as described above and 5 ml of ETH added as an overpressure. The appearance of ETO was monitored by gas chromatography evaluation of Cw over the course of 30 minutes (FIG. 39A). Killed cells (boiled) served as a negative control. pMMO is a copper enzyme and can be inhibited by allylthiourea (ATU), while sMMO (an iron enzyme) is insensitive to inhibition by ATU. The ETH to ETO assay described above was repeated with 10 μM ATU to discriminate between sMMO and pMMO activity.
(§1) Metabolic activity test methods have been developed to monitor specific activities in M. trichosporium OB3b cultures. A naphthalene oxidation assay was used to determine if sMMO is being expressed. An ethylene to ethylene oxide reaction assay and a methane oxidation assay was used to quantify MMO activity, and a methanol oxidation assay was used to estimate MDH activity. Concurrent batch metabolic tests can be conducted to investigate methanol inhibition of methane oxidation, cyclopropane to cyclopropanol conversion and concurrent/subsequent cyclopropanol inhibition of MDH activity, the effect of cyclopropanol inhibition on growth yield, and the effects of high oxygen concentration. Once stable operation and baseline metabolic monitoring in the chemostat have been achieved, inhibitor can be added to evaluate chemostat operation under methanol-producing conditions.
MMO activity has been measured via both methane (CH4) consumption and ethylene oxide (ETO) production upon oxidation of the non-growth substrate ethylene (ETH, Table 4). While ETO production matches methane consumption for pMMO, ETH is not as good a substrate for sMMO as methane. Nevertheless, the ETO accumulation assay is quick (<30 min) and can be used to screen for activity before starting a larger experiment.
(§2) The effect of salts NaCl, NH4Cl and CaCl2 on MMO and MDH activity was evaluated using the reactivity assays described above.

MDH = MDH activity reactivity assay (methanol SOUR), inhibitor trials; type: cell-based, M. trichosporium OB3b
Procedure: The procedure for measuring methanol dehydrogenase (MDH) activity by measuring the specific oxygen uptake rate (SOUR) has been tested on M. trichosporium OB3b cultures grown both in batch and in the chemostat. M. trichosporium OB3b cells were harvested using centrifugation. The supernatant was poured off and the cells were re-suspended in fresh media lacking a carbon source. Phosphate buffer solution was added to a sample chamber in which dissolved oxygen (DO) was measure with a DO probe. When the DO of the solution stabilized, the re-suspended cells were added to the sample chamber to measure baseline oxygen uptake by the cells without a carbon food source present. Methanol was then added to test for MDH activity. The difference in the oxygen uptake rates illustrates the MDH activity of the culture.
as §1, with “concentration.” for “concentration. Once stable operation and baseline metabolic monitoring in the chemostat have been achieved, inhibitor can be added to evaluate chemostat operation under methanol-producing conditions.”
as §2

C1CC1 [CP, cyclopropane]
Fraction of Activity Remaining, sMMO (sMMO; CP 03 μmol): 0.9 | Fraction of Activity Remaining, sMMO (sMMO; CP 32 μmol): 0.9 | Fraction of Activity Remaining, sMMO (sMMO; CP 64 μmol): 0.8 | Fraction of Activity Remaining, MDH (MDH; CP 03 μmol): 0.9 | Fraction of Activity Remaining, MDH (MDH; CP 32 μmol): 0.2 | Fraction of Activity Remaining, MDH (MDH; CP 64 μmol): 0.1
